The values that follow come from patent publication US8592600B2, “Solid state forms of racemic ilaprazole” (Il Yang Pharmaceutical Company, Ltd., priority 2006, dated 2013).

A short description of data set [1]: Solubility of racemic ilaprazole forms in various ethanol solutions (100-50% ethanol) with various apparent pHs, 1 hour. The format is physicochemical. As to conditions: comparison between Forms A, B, F. On the procedure: The solubility of racemic ilaprazole, Forms A, B, and F, were analyzed by exposing them to various ethanol solutions having various pHs for 1 hour. Duplicate analysis was performed for each sample on a second day. The solubility in 100% ethanol (with no pH adjustment) is shown in the first column. Various other aqueous solutions (87.5%, 75%, 62.5%, and 50% ethanol) with varying apparent pHs (7, 8, 9, 10, and 11) were also evaluated. All of the values below are the average of two duplicate preparations analyzed on different days.

Data set [2] is described as follows: Dissolution rate of delayed release tablets, 40 mg (USP <711>, Delayed Release Method A). Format: physicochemical. As to conditions: 40 mg tablet, dissolution buffer. The protocol:
Delayed release tablets containing 40 mg racemic ilaprazole, Form A, B, or F, were prepared and the dissolution rates of the tablets studied. The tablets were identical, with the exception of the crystalline form of ilaprazole. The qualitative and quantitative compositions of racemic ilaprazole delayed release tablets, 40 mg (inclusive of the compositions made using Forms A, B, and F) are described in Table 30. The dissolution rate procedure was modified to be consistent with USP <711>, Delayed Release Method A and to change the UV detection wavelength in the acid stage of the test. For the acid stage, a wavelength of 340 nm was used, and for the buffer stage, a wavelength of 306 nm was used. The desired dissolution profile was Q=70% in 60 minutes.

Data set [3] is described as follows: Bioavailability study of ilaprazole from 40-mg delayed-release tablets, plasma pharmacokinetics. The format is in vivo, human. As to conditions: for AUC lower than Form A, point estimate / Cmax lower than Form A, point estimate: ANOVA point estimate, relative to 40-mg tablet as Form A; for half-life, relative: humans, Forms A, B, F compared; for mean AUC∞ lower than value observed for Form A / mean Cmax lower than value observed for Form A: mean values; for mean AUC∞ lower than value observed for Form A / mean Cmax lower than value observed for Form A / mean AUC, rank among forms / mean Cmax, rank among forms / mean apparent oral clearance, rank among forms / mean apparent volume of distribution, rank among forms: single 40 mg oral dose; for t1/2z, harmonic mean / tlag, Mean / tmax, Mean: single 5 mg oral dose (table title; text: 40 mg delayed-release tablet); for lower bound of 90% confidence interval for ratio of central values, AUC / lower bound of 90% confidence interval for ratio of central values, AUC∞ / lower bound of 90% confidence interval for ratio of central values, Cmax: relative to Form A (Regimen A), bioequivalence limit 0.80; for AUCt, Point Estimate (ratio of central values) vs. Regimen A / AUC∞, Point Estimate (ratio of central values) vs. Regimen A / Cmax, Point Estimate (ratio of central values) vs. Regimen A: relative to Regimen A (Form A), Regimen B = Form B, Regimen C = Form F, single 40-mg delayed-release tablet. An excerpt: The bioavailability of ilaprazole from delayed-release tablets containing racemic ilaprazole, Form A, F, and B. This study were to assessed the bioavailability of ilaprazole from ilaprazole 40-mg delayed-release tablets manufactured as described in Example 8.
The subjects were randomly assigned in equal numbers to one of three sequence groups (Table 32).
Subjects received all regimens in a crossover fashion, according to the sequence group to which they were randomized. For each period, confinement began on Day 1 and ended on Day 2 after all procedures had been completed. There was a washout interval of at least 5 days between the doses of each period. Each subject received 3 doses of racemic ilaprazole 40 mg, each dose administered with 240 mL of water. On Day 1 of each period, subjects received the regimen to which they had been assigned at approximately 0800 hours. Subjects were fasted for 10 hours prior to dosing and remained fasted until 4 hours postdose when a standardized lunch was served.
Ilaprazole, ilaprazole sulfide and ilaprazole sulfone plasma concentrations were determined from 3 mL blood samples collected starting on Day 1 at 0 hour (predose), and 0.5, 1, 1.5, 2, 3, 4, 5, 6, 8, 10, 12, 14, 16, 20, 24, 28 and 32 hours postdose in each period. Plasma concentrations of ilaprazole were determined using a validated LC-MS/MS method at PPD (Middleton, Wis.). The lower limit of quantitation (LLOQ) for ilaprazole and its metabolites was 5.00 ng/mL with a 0.100 mL aliquot of plasma.
Pharmacokinetic parameters for ilaprazole were estimated using standard noncompartmental methods with WinNonlin Professional Version 4.1 (Pharsight Co., Mountain View, Calif.).
Pharmacokinetic endpoints included time to reach the first quantifiable concentration (tlag), time to reach the peak concentration (tmax), the peak plasma concentration (Cmax), area under the plasma concentration versus time curve (AUC) from time zero to the last quantifiable concentration (AUCt) and to infinity (AUC∞), terminal-phase elimination half-life (t1/2z), apparent oral clearance (CL/F) and apparent volume of distribution (Vz/F).
For ilaprazole tlag, tmax, and the natural logarithms of Cmax and AUCs, an analyses of variance (ANOVA) model was fitted that included fixed effects of sequence, period, and crystal form as well as a random effect of subject nested within sequence. Pairwise comparisons between racemic ilaprazole, Forms B or F and Form A, were conducted. Ninety percent confidence intervals for relative bioavailability between regimens were computed.

A short description of data set [4]: Dynamic Vapor Sorption/Desorption (DVS). As to conditions: for weight loss at 5% RH / weight loss from 95 to 5% RH / weight gain from 5 to 95% RH: DVS isotherm; for weight loss from 95 to 5% RH: desorption; for weight gain from 5 to 95% RH: sorption. The format is physicochemical. On the procedure: Dynamic Vapor Sorption/Desorption (DVS): Data were collected on a VTI SGA-100 moisture balance system. For sorption isotherms, a sorption range of 5 to 95% relative humidity (RH) and a desorption range of 95 to 5% RH in 10% RH increments were used for analysis. The samples were not dried prior to analysis. Equilibrium criteria used for analysis were less than 0.0100% weight change in 5 minutes with a maximum equilibration time of 3 hours if the weight criterion was not met. Data were not corrected for the initial moisture content of the samples.

Data set [5] can be described thus: Solid state stability of the crystalline forms. Format: physicochemical.
In data set [6] the test system is gastric acid. The experiment in a line: Phase 1 and Phase 2 clinical studies conducted with ilaprazole. The format is in vivo, human.
The mark [7] stands for this setting: plasma ilaprazole, healthy adult subjects, fasted.
[8] abbreviates: plasma ilaprazole, healthy adult subjects, single 40 mg oral dose (table title; text: 40 mg delayed-release tablet), fasted.
[9] abbreviates: human, plasma, po, 40 mg, plasma ilaprazole, healthy adult subjects, single 40 mg oral dose (table title; text: 40 mg delayed-release tablet), fasted.

“Also recorded” adds a separate entry of the source.

A word on the AUC(0-inf): it is the area under the concentration-time curve extrapolated to infinity. As a reminder, the AUC(0-t) is the area under the concentration-time curve up to a stated or last time point. A higher AUC(0-t) goes with more exposure. As a reminder, the Cmax is the highest concentration seen after dosing. As a reminder, the Tmax is the time from dosing to the highest level.

For `COc1ccnc(C[S+]([O-])c2nc3cc(-n4cccc4)ccc3[nH]2)c1C` (racemic) [Form B, 2[[(4-methoxy-3-methyl-2-pyridinyl)-methyl]sulfinyl]-5-(1H-pyrrol-1-yl) 1H-Benzimidazole], the “relative solubility in aqueous solutions/solvents” value in data set [1] was “A<F<B; also recorded: more soluble in aqueous solvents than Form A”. Moreover, the “dissolution of delayed release tablet, relative” value in data set [2] is “relatively slower dissolution profile; also recorded: slower to wet and dissolve in the dissolution buffer than Form A and Form F”. Moreover, in data set [3], the “AUC lower than Form A, point estimate” value is listed as around 24%; the “Cmax lower than Form A, point estimate” value was “approximately 17%”; the “half-life, relative” value is on record as “greater half-life than Form A”; the “mean AUC∞ lower than value observed for Form A” value is around 25%. Further, in data set [3], the “mean Cmax lower than value observed for Form A” value is listed as “approximately 20%”; the “lower bound of 90% confidence interval for ratio of central values, AUC” value is given as below 0.80; the “lower bound of 90% confidence interval for ratio of central values, AUC∞” value is on record as below 0.80; the “lower bound of 90% confidence interval for ratio of central values, Cmax” value was below 0.80. For the same compound, in data set [3], the “AUCt, Point Estimate (ratio of central values) vs. Regimen A” value is listed as 0.7630; the “AUC∞, Point Estimate (ratio of central values) vs. Regimen A” value was 0.7609; the “Cmax, Point Estimate (ratio of central values) vs. Regimen A” value is 0.8292; the “mean AUC, rank among forms” value is on record as “lowest”. Besides, in data set [3], the “mean Cmax, rank among forms” value is on record as “lowest”; the “mean apparent oral clearance, rank among forms” value is listed as “highest”; the “mean apparent volume of distribution, rank among forms” value is on record as “highest”. In data set [3] (setting [7]), the “t1/2z, harmonic mean” value was “(7.76) h”; the “tlag, Mean” value turned out to be 1.22 h; the “tmax, Mean” value was found to be 3.50 h. For the same compound, in data set [3] (setting [8]), the “AUCt, Mean” value came out at 3812.50 ng·h/mL; the “AUC∞, Mean” value came to 4087.99 ng·h/mL; the “CL/F, Mean” value was 11.70 L/h; the “Cmax, Mean” value was determined as 522.51 ng/mL. For the same compound, the “t1/2z, arithmetic mean” value in data set [3] (setting [8]) worked out at 9.48 h. Besides, in data set [4], the hygroscopicity entry was “not hygroscopic”, the “weight loss at 5% RH” value is given as 0.03%, the “weight loss from 95 to 5% RH” value is reported as 0.00% and the “weight gain from 5 to 95% RH” value came out at 0.04%. Further, the “long term stability or shelf life” value in data set [5] is on record as “good long term stability or shelf life”.

On to `COc1ccnc(C[S+]([O-])c2nc3cc(-n4cccc4)ccc3[nH]2)c1C` (racemic) [Form I, 2[[(4-methoxy-3-methyl-2-pyridinyl)-methyl]sulfinyl]-5-(1H-pyrrol-1-yl) 1H-Benzimidazole], for which, in data set [4], the “weight loss at 5% RH” value came to 0.1%, the “weight loss from 95 to 5% RH” value came to 4.2% and the “weight gain from 5 to 95% RH” value was 4.2%.

As to `COc1ccnc(C[S+]([O-])c2nc3cc(-n4cccc4)ccc3[nH]2)c1C` (stereo not shown) [ilaprazole, 2[[(4-methoxy-3-methyl-2-pyridinyl)-methyl]sulfinyl]-5-(1H-pyrrol-1-yl) 1H-Benzimidazole], the “suppression of gastric acid” value in data set [6] (Phase 1 clinical studies, at the doses studied) is “suppression of gastric acid occurs over a 24-hour period”. Moreover, the “healing of acid-related gastric and duodenal ulcers” value in data set [6] (Phase 2 clinical studies) is on record as “promoted rapid healing”. Also, the symptomatic relief entry in data set [6] (Phase 2 clinical studies, patients with gastric-acid related disorders) is reported as “provided symptomatic relief”.

On to `COc1ccnc(C[S+]([O-])c2nc3cc(-n4cccc4)ccc3[nH]2)c1C` (racemic) [Form F, 2[[(4-methoxy-3-methyl-2-pyridinyl)-methyl]sulfinyl]-5-(1H-pyrrol-1-yl) 1H-Benzimidazole], for which the “relative solubility in aqueous solutions/solvents” value in data set [1] was “A<F<B; also recorded: more soluble in aqueous solvents than Form A”. In data set [3], the “AUC lower than Form A, point estimate” value is 15-17%; the “Cmax lower than Form A, point estimate” value is “approximately 15%”; the “half-life, relative” value is “longest half-life”; the “mean AUC∞ lower than value observed for Form A” value was around 14%. In addition, in data set [3], the “mean Cmax lower than value observed for Form A” value is reported as “approximately 15%”; the “lower bound of 90% confidence interval for ratio of central values, AUC” value is on record as below 0.80; the “lower bound of 90% confidence interval for ratio of central values, AUC∞” value is given as below 0.80; the “lower bound of 90% confidence interval for ratio of central values, Cmax” value is reported as below 0.80. Moreover, in data set [3], the “AUCt, Point Estimate (ratio of central values) vs. Regimen A” value was 0.8288; the “AUC∞, Point Estimate (ratio of central values) vs. Regimen A” value is 0.8456; the “Cmax, Point Estimate (ratio of central values) vs. Regimen A” value was 0.8456. For the same compound, in data set [3] (setting [7]), the “t1/2z, harmonic mean” value is on record as “(7.29) h”; the “tlag, Mean” value is reported as 1.18 h; the “tmax, Mean” value was found to be 4.01 h. In addition, in data set [3] (setting [8]), the “AUCt, Mean” value came out at 4256.66 ng·h/mL; the “AUC∞, Mean” value turned out to be 4672.37 ng·h/mL; the “CL/F, Mean” value is on record as 11.29 L/h; the “Cmax, Mean” value amounted to 554.18 ng/mL. Besides, the “t1/2z, arithmetic mean” value in data set [3] (setting [8]) came out at 9.66 h. Further, in data set [4], the hygroscopicity result is listed as “slightly hygroscopic”, the “weight loss at 5% RH” value came out at 0.04%, the “weight loss from 95 to 5% RH” value stood at 1.33% and the “weight gain from 5 to 95% RH” value worked out at 1.05%.

For the compound `COc1ccnc(C[S+]([O-])c2nc3cc(-n4cccc4)ccc3[nH]2)c1C` (racemic) [Form A, 2[[(4-methoxy-3-methyl-2-pyridinyl)-methyl]sulfinyl]-5-(1H-pyrrol-1-yl) 1H-Benzimidazole], the “relative solubility in aqueous solutions/solvents” value in data set [1] is reported as “A<F<B; also recorded: least soluble in aqueous solutions”. For the same compound, in data set [3] (setting [9]), the AUC(0-inf) turned out to be 5450 ng·h/mL, the area under the curve AUC(0-t) turned out to be 5070 ng·h/mL, the highest concentration (Cmax) came to 652 ng/mL and the time of peak concentration (Tmax) worked out at 4.14 h. The Vd/F in data set [3] (human, plasma, po, 40 mg, plasma ilaprazole, healthy adult subjects, single 40 mg oral dose (table title; text: 40 mg delayed-release tablet), fasted, read-out: Vz/F, Mean) amounted to 112 L. For the same compound, in data set [3] (setting [7]), the “t1/2z, harmonic mean” value is on record as “(6.95) h” and the “tlag, Mean” value is 1.16 h. Further, in data set [3] (setting [8]), the “CL/F, Mean” value stood at 9.34 L/h and the “t1/2z, arithmetic mean” value is 8.89 h. Further, in data set [3], the “mean AUC, rank among forms” value is given as “highest”; the “mean Cmax, rank among forms” value was “highest”; the “mean apparent oral clearance, rank among forms” value is given as “lowest”; the “mean apparent volume of distribution, rank among forms” value was “lowest”. Besides, in data set [4], the hygroscopicity result was “not hygroscopic”, the “weight loss at 5% RH” value is 0.06%, the “weight loss from 95 to 5% RH” value worked out at 0.13% and the “weight gain from 5 to 95% RH” value is given as 0.10%. Moreover, the “thermodynamic stability among crystalline forms” value in data set [5] is listed as “most thermodynamically stable”.
